Test results as given in ChEMBL document CHEMBL1125762, “Synthesis and pharmacological evaluation of 1-(aminomethyl)-3,4-dihydro-5-hydroxy-1H-2-benzopyrans as dopamine D1 selective ligands” (J Med Chem, 1991).

Columns and labels:
D(2) dopamine receptor = D(2) dopamine receptor (Rattus norvegicus, UniProt P61169); assay: Binding affinity for dopamine receptor D2
D(1A) dopamine receptor = D(1A) dopamine receptor (Rattus norvegicus, UniProt P18901); assay: Binding affinity for dopamine receptor D1
D(1) dopamine receptor = D(1) dopamine receptor (Carassius auratus, UniProt P35406); assay: In vitro inhibition of dopamine stimulated adenylate cyclase
[1] = biological target: T1, Adrenergic receptor alpha-1 (Homo sapiens, UniProt P35348+P25100+P35368); assay: Compound was tested in vitro for binding affinity for alpha-1 adrenergic receptor; format: protein assay
T1 sequence (P35348 whole entry): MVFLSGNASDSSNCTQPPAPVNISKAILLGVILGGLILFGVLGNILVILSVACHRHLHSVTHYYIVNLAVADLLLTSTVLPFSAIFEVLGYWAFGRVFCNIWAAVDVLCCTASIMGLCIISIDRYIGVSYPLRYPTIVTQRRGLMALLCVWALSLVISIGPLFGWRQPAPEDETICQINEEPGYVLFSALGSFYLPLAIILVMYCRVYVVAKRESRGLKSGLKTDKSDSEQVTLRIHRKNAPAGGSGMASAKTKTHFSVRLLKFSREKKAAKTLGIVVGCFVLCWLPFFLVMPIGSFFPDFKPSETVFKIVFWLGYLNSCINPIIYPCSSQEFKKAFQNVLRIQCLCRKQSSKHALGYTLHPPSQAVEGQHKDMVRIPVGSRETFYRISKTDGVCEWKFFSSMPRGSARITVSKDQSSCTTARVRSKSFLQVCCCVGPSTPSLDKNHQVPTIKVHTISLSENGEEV
T1 sequence (P25100 whole entry): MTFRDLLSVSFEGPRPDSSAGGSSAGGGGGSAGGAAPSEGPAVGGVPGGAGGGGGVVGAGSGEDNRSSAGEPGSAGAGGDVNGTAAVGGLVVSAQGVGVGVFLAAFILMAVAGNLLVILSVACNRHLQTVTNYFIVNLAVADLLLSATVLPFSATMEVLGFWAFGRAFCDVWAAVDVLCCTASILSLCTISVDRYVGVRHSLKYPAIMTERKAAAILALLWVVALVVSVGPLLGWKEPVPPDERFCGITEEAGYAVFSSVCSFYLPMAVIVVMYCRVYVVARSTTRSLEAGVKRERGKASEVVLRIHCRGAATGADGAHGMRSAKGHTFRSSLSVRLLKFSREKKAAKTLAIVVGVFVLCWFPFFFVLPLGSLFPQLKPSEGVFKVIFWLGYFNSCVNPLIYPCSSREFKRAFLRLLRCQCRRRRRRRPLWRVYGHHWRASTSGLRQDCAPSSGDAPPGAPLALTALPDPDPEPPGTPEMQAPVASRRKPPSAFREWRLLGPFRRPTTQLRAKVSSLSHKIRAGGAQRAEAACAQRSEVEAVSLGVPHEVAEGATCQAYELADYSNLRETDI
T1 sequence (P35368 whole entry): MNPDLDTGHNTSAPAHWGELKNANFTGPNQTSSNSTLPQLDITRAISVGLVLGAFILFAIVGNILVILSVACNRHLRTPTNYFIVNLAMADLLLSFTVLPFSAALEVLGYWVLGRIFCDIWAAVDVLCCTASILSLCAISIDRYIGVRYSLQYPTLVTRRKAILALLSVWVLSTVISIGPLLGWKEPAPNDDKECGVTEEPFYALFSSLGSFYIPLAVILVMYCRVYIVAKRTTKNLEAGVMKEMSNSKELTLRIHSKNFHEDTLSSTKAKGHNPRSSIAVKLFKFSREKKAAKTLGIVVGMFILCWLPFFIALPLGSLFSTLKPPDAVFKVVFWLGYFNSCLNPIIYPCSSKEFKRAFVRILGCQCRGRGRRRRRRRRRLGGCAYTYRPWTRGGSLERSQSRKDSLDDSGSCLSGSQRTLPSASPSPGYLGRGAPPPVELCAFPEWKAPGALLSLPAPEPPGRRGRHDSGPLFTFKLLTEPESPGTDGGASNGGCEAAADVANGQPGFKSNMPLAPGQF

[2] = biological target: T2, Adrenergic receptor alpha-2 (Homo sapiens, UniProt P08913+P18825+P18089); assay: Compound was tested in vitro for binding affinity for alpha-2 adrenergic receptor; format: protein assay
T2 sequence (P08913 whole entry): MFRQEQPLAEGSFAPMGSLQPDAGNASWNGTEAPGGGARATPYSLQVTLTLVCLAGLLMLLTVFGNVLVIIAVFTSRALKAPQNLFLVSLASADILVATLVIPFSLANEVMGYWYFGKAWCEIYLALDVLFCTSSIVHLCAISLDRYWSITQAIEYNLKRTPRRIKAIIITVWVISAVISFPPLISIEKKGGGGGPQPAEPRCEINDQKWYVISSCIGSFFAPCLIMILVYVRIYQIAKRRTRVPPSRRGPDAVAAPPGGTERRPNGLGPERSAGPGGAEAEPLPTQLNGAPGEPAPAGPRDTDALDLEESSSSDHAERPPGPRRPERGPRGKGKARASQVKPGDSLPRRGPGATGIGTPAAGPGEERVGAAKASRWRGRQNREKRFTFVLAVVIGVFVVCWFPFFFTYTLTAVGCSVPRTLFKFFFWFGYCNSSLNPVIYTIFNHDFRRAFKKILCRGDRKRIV
T2 sequence (P18825 whole entry): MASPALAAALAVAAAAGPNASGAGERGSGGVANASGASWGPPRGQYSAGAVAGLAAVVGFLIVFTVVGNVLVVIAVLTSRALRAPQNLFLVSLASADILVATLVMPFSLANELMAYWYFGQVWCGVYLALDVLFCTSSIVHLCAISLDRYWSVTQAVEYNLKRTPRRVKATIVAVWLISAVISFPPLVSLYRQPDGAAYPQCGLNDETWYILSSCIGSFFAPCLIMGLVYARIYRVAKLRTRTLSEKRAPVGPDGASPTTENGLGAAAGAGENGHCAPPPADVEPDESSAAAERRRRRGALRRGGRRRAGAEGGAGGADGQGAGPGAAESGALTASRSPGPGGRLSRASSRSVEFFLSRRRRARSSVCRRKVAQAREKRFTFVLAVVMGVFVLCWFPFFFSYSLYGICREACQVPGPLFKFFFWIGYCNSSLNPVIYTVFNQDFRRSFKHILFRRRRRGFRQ
T2 sequence (P18089 whole entry): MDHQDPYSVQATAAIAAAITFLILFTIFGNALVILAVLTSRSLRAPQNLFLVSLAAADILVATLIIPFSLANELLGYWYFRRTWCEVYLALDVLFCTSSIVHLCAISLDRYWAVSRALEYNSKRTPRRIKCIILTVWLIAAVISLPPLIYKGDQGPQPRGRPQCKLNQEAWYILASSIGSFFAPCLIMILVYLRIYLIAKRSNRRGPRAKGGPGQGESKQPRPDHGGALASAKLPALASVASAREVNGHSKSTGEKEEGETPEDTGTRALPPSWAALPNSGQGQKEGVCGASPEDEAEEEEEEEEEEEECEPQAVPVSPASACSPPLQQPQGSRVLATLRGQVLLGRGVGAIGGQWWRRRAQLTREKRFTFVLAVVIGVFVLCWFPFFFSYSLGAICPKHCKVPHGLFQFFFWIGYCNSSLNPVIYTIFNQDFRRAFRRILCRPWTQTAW

Rattus norvegicus [3] = assay: Compound was tested for the net contralateral rotations in rats 2 hr after administration of 0.1 uM/kg dopamine agonist; Activity expressed as net contralateral rotations / 2 hr; format: functional
[4] = biological target: Sodium-dependent dopamine transporter (Homo sapiens, UniProt Q01959); assay: In vitro binding affinity for dopamine uptake site
[5] = biological target: T3, 5-hydroxytryptamine receptor 1A (Rattus norvegicus, UniProt P19327); assay: Compound was tested in vitro for binding affinity for 5-hydroxytryptamine 1A receptor
T3 sequence (P19327 whole entry): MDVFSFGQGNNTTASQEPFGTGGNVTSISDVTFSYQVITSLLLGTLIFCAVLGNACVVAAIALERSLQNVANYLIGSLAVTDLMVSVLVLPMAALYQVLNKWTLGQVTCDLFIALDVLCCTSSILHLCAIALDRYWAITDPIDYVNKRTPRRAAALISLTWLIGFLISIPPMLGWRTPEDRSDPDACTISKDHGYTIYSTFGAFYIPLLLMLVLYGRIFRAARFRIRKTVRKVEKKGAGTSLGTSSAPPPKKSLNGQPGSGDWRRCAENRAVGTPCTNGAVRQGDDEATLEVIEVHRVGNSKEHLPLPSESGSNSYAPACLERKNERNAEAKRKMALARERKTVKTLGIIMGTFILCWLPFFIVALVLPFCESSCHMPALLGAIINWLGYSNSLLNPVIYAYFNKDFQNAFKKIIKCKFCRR

[6] = biological target: Serotonin 2 (5-HT2) receptor (Rattus norvegicus, UniProt P30994+P08909+P14842); assay: Compound was tested in vitro for binding affinity for 5-hydroxytryptamine 2 receptor; format: protein assay
Rattus norvegicus [7] = assay: Compound was tested for the net contralateral rotations in rats 2 hr after administration of 0.1 umol/kg, predosed with SCH-23390 (0.1 umol/kg sc), 40 min prior to injection of test compound; Activity expressed as net contralateral rotations / 2 hr
[8] = biological target: Beta-2 adrenergic receptor (Canis lupus familiaris, UniProt P54833); assay: Compound was tested in vitro for binding affinity for beta receptor
Rattus norvegicus [9] = assay: Compound was tested for the net contralateral rotations in rats 2 hr after administration of 1 uM/kg dopamine agonist; Activity expressed as net contralateral rotations / 2 hr; format: functional
Rattus norvegicus [10] = assay: Compound was tested for the net contralateral rotations in rats 2 hr after sc administration of 1.7 umol/kg dopamine agonist; Activity expressed as net contralateral rotations / 2 hr; format: functional
Rattus norvegicus [11] = assay: Compound was tested for the net contralateral rotations in rats 2 hr after administration of 1.7 umol/kg, predosed with SCH-23390 (0.05 umol/kg sc), 40 min prior to injection of test compound; Activity expressed as net contralateral rotations / 2ho; format: functional
Rattus norvegicus [12] = assay: Compound was tested for the net contralateral rotations in rats, 2 hr after sc administration of 0.43 umol/kg dopamine agonist; Activity expressed as net contralateral rotations / 2 hr; format: functional

Sequence of D(2) dopamine receptor (P61169 whole entry): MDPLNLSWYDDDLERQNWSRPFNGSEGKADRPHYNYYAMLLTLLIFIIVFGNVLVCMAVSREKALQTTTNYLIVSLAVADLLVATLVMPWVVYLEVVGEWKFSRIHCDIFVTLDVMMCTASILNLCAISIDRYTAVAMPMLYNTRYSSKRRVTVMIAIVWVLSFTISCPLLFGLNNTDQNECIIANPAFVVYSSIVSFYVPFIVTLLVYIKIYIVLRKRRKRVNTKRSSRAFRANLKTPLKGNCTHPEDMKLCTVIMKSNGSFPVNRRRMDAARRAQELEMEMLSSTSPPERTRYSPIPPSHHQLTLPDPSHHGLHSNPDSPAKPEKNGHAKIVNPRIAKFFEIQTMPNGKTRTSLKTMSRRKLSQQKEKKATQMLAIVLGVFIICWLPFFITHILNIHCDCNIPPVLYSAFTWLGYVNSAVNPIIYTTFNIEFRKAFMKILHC
Sequence of D(1) dopamine receptor (P35406 whole entry): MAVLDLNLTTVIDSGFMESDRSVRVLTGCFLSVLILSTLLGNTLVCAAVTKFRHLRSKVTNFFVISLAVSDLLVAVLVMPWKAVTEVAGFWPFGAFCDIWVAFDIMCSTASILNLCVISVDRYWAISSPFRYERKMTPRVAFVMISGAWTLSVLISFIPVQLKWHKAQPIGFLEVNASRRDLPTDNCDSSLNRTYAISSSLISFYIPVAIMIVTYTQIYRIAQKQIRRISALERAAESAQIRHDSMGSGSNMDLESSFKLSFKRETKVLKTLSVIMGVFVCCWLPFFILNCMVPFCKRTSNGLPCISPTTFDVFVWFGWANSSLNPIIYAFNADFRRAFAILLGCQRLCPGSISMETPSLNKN
Sequence of D(1A) dopamine receptor (P18901 whole entry): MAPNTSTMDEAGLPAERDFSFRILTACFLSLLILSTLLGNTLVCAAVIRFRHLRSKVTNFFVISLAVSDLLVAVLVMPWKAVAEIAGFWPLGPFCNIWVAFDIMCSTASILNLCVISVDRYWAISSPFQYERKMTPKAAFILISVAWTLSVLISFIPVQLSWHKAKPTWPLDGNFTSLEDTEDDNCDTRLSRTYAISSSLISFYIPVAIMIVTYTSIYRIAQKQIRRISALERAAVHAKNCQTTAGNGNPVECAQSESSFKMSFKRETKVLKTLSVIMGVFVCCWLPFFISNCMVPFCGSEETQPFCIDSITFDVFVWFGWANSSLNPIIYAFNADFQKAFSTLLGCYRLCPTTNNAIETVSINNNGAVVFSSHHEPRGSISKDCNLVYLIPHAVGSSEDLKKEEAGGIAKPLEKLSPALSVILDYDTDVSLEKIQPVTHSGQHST
Sequence of Sodium-dependent dopamine transporter (Q01959 whole entry): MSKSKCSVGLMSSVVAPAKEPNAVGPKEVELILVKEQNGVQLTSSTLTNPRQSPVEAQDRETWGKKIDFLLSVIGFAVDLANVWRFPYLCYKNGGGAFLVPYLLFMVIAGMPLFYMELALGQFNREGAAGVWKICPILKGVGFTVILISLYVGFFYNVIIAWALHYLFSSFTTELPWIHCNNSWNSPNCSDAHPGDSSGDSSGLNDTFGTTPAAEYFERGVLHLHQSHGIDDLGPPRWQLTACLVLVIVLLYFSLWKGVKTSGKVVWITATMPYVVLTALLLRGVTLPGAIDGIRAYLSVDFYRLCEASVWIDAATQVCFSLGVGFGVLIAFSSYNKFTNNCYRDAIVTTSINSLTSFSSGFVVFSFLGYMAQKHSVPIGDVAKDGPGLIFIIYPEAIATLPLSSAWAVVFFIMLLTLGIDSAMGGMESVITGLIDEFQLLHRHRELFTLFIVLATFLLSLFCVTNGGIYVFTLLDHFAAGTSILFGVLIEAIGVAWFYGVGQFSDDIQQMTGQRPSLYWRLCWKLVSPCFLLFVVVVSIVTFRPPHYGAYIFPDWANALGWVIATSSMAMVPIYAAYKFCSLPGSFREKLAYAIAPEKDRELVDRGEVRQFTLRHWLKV
Sequence of Beta-2 adrenergic receptor (P54833 whole entry): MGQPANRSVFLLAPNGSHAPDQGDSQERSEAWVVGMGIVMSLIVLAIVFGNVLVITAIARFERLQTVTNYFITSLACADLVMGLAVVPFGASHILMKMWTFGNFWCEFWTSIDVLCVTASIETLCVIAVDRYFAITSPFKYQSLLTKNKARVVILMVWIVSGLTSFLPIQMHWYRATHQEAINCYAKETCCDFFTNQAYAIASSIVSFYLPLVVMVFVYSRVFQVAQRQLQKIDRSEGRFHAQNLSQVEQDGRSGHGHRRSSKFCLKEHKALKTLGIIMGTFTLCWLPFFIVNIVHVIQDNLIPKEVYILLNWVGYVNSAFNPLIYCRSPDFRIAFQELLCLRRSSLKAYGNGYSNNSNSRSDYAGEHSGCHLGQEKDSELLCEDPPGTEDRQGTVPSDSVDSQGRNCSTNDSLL

Ki (D(2) dopamine receptor) [nM]	Ki (D(1A) dopamine receptor) [nM]	Ki (D(1) dopamine receptor) [nM]	SMILES	other results
1120	5.4	–	NC[C@@H]1O[C@H](C2CCCCC2)Cc2c1ccc(O)c2O	–
1960	366	197	NC[C@H]1O[C@H](c2ccccc2)Cc2c1ccc(Br)c2O	–
> 30000	103	52.5	NC[C@@H]1O[C@H](c2ccccc2)Cc2c(O)cccc21	–
> 30000	86.4	100	Br.Cc1ccc2c(c1O)C[C@@H](C1CCCCC1)O[C@H]2CN	Ki [1]: > 30000 nM; Ki [2]: 358 nM; Activity (Rattus norvegicus [3]): 227; Ki [4]: 1870 nM; Ki [5]: 54.1 nM; Ki [6]: 242 nM; Activity (Rattus norvegicus [7]): 4; Ki [8]: 19200 nM; Activity (Rattus norvegicus [9]): 751
2630	2820	454	CCCNC[C@@H]1O[C@H](C2CCCCC2)Cc2c1ccc(C)c2O	–
569	5.1	32.4	Cl.NC[C@@H]1O[C@H](c2ccccc2)Cc2c1ccc(Br)c2O	Ki [1]: 1820 nM; Ki [2]: 360 nM; Activity (Rattus norvegicus [3]): 1007; Ki [4]: > 30000 nM; Ki [5]: 312 nM; Ki [6]: 6360 nM; Activity (Rattus norvegicus [7]): 151; Ki [8]: 18400 nM; Activity (Rattus norvegicus [9]): 748
4610	263	121	CNC[C@@H]1O[C@H](C2CCCCC2)Cc2c1ccc(C)c2O	–
18000	284	125	Cc1ccc2c(c1O)C[C@@H](C1CCCCC1)O[C@H]2CN(C)C	–
> 30000	166	247	COc1ccc2c(c1O)C[C@@H](c1ccccc1)O[C@H]2CN	–
–	–	–	Oc1cc2c(cc1O)[C@@H](c1ccccc1)CNCC2 [(R)-SKF-38393]	Activity (Rattus norvegicus [10]): 608; Activity (Rattus norvegicus [11]): 47; Activity (Rattus norvegicus [12]): 241
